This is an account of results in US20240382498A1, “NOVEL INHIBITOR OF HYPE-MEDIATED AMPYLATION” (Purdue Research Foundation, priority 2023, published 2024).

One data set addresses T1, E234G HYPE (Homo sapiens, UniProt Q9BVA6, E234G).
T1 construct: Δ102 (aa 103-458) HYPE constructs (WT, E234G, and E234G/H363A); His6-SUMO (cleaved yes); made in house; host or cells: E. coli BL21-DE3-RILP
T1 sequence (Q9BVA6 103-458 E234G): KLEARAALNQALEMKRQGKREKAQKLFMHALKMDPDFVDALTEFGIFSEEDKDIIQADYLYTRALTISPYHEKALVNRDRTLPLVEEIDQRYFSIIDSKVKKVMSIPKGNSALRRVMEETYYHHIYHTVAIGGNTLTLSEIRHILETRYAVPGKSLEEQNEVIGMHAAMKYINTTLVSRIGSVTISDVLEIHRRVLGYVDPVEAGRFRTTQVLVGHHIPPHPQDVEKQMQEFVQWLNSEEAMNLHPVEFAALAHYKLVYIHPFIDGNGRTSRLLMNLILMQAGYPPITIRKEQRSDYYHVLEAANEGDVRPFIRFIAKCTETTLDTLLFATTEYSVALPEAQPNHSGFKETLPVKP
Put plainly: Fluorescence polarization (FP) microplate autoAMPylation assay with Fl-ATP, E234G HYPE inhibitor HTS, cherrypick validation and concentration-response. In kind it is biochemical. The following applies: for % Inh. Cherry-pick / % Inh. HTS / inhibition at 10 µM: 10 μM compound; for Mean % Inh.: mean of HTS and cherrypick. As to the method:
Buffer optimization experiments were performed by incubating 0.4 μM of Δ102 HYPE enzyme with 25 nM Fl-ATP (final concentrations) in HTS buffer (50 mM HEPES (pH 7.5), 1 mM MgCl2, 0.1% Triton X-100, 1% DMSO) in the dark at room temperature for 10 min in 384-well black bottom, black wall microplates (20 μL reaction volume). Where specified, 1 mM MgCl2 was replaced with an equivalent concentration of MnCl2, or 0.1% Triton X-100 was replaced with 0.05% or 0.01% Trion X-100. Microplates were snap centrifuged at 1000 g for 10 sec. Microplates were loaded onto a BioTek BioStack NEO2 plate-reader and assessed for fluorescence polarization with 485/530 nm filters and a 55/50 gain adjustment.
A Multidrop 384 reagent dispenser (ThermoFisher) was used to add 0.4 μM HYPE, then 25 nM Fl-ATP (final concentrations) to 384-well black/black microplates (20 μL reaction volume). Both enzyme and nucleotide were dissolved in HTS Buffer. AMPylation Reactions were incubated for 10 min at room temperature in the dark. Microplates were snap centrifuged at 1000 g for 10 sec, then transferred to BioTek BioStack NEO2 plate-reader. Reactions were assessed for fluorescence polarization with 485/530 nm filters and a 55/50 gain adjustment. Z′, S/B, and CV values were determined by fitting the data to Eq. 1, 2, and 3, respectively,
An Echo Liquid Handler (Labcyte) was used to transfer 200 nL of DMSO-dissolved compounds via acoustic-coupled ejection from 10 mM source plates into 384-well black, flat-bottom, black-walled microplates, for a final compound concentration of 10 μM. Compounds were sourced from the following libraries: DIVERset (Chembridge), CNS-Set (Chembridge). The compounds went into columns 3-22 of each plate, while columns 1, 2, 23, and 24 were reserved for equivalent volume of 100% DMSO controls.
A Multidrop 384 reagent dispenser was used to pipette 0.4 μM of WT HYPE (final concentration) dissolved in HTS Buffer into columns 1-22 of the activator plates, and columns 1 and 2 of the inhibitor plates as positive controls. 0.4 μM of E234G HYPE was similarly added to columns 3-24 of the inhibitor plates, and columns 23 and 24 of the […]. Enzymes were then incubated with either compounds or DMSO for 10 min at room temperature.
A Multidrop 384 reagent dispenser was used to pipette 25 nM of Fl-ATP (final concentration) into all wells of each plate, giving a final reaction volume of 20 μL. Plates were then incubated for 10 min at room temperature in the dark, followed by a snap centrifugation at 1000 g for 10 sec. Microplates were loaded onto BioTek BioStack stacker and read in succession for fluorescence polarization with 485/530 nm filters and a 55/50 gain adjustment. Fluorescence polarization values were converted to fractional activation (FA) or fractional inhibition FI) values according to Eq. (3) or (4), respectively,
[formula] [formula] • where μp and μn are the means of the positive (E234G HYPE) and negative (WT HYPE) controls, respectively; and x is the measured value of fluorescence polarization.
Microplate “cherrypicking” validations were performed as described above.
A Multidrop 384 reagent dispenser was used to pipette 0.4 μM of WT or E234G HYPE (final concentrations) dissolved in HTS Buffer into designated microplate wells. 10 μM of DMSO-dissolved compounds (final concentrations) or equivalent volume of 100% DMSO were manually pipetted into their specified wells. Enzymes were incubated with compounds or DMSO for 10 min at room temperature. Reagent dispenser was then used to pipette 25 nM of Fl-ATP (final concentration) into each well, followed by a 10 min incubation at room temperature in the dark. Plates were snap centrifuged at 1000 g for 10 sec, then transferred to BioTek BioStack NEO2 plate-reader. Reactions were assessed for fluorescence polarization with 485/530 nm filters and a 55/50 gain adjustment. EC50 and IC50 values were determined by fitting polarization values to Eq. (5) and (6), respectively, […]

A further data set has as its target T2, WT HYPE (Homo sapiens, UniProt Q9BVA6).
T2 construct: Δ102 (aa 103-458) HYPE constructs (WT, E234G, and E234G/H363A); His6-SUMO (cleaved yes); made in house; host or cells: E. coli BL21-DE3-RILP
T2 sequence (Q9BVA6 103-458): T1 sequence (Q9BVA6 103-458 E234G) with G132E
Nature of the data set: Fluorescence in-gel autoAMPylation assay with WT HYPE and Fl-ATP. The conditions noted are these: 10 μM compound, versus DMSO control. Format: biochemical. As to the method: 1 μM of WT HYPE (final concentration) was preincubated with 10 μM DMSO-dissolved compound (final concentration) or equivalent volume of 100% DMSO at room temperature for 10 min. Reactions were run for 20 hr at 30° C. in the dark and began with the addition of 1 μM Fl-ATP (final concentration). Alternatively, E234G HYPE AMPylation reactions were run at 10 min due to its hyperactivity. All other parameters were held constant. All reactions were performed HTS Buffer (50 mM HEPES, 1 mM MgCl2, 0.1% Triton X-100, pH 7.50). All reactions were quenched with 4×SDS loading dye, boiled for 5 min at 95° C., and samples were run on 12% SDS-PAGE gels. Gels were imaged on a Typhoon 9500 FLA imager (General Electric) for fluorescence at 473 nm. Imaged gels were then stained with Coomassie Brilliant Blue, destained, and imaged for protein concentration. Where specified, 5 μM of T229A BiP (final concentration) was added to reactions before the addition of compound.

Another data set deals with HeLa cells. Nature of the data set: MTT cell viability assay, HeLa. Format: cell-based, human. The following applies: HeLa, 48 hr. As to the method: The cell lines were procured from ATCC (American Type Culture Collection) and cultured in DMEM (Dulbecco's Modified Eagle Medium) supplemented with 10% FBS (fetal bovine serum) without antibiotics. Cells were grown and maintained in a humidified incubator at 37° C. with 5% CO2. For the MTT assay, cells were trypsinized and harvested at ˜80-90% confluency and seeded in 96 well plates at a density of 1×10^4 cells per well. The seeded cells were incubated overnight and treated with 1 μM, 3 μM, 5 μM, 7 μM, 10 μM, 20 μM, 30 μM or 50 μM (final concentration) of DMSO-dissolved compound for 48 hr. To rule out vehicle induced toxicity, only 0.5% of final DMSO concentration was added to the cells. Post-incubation, the compound treatment was removed and replaced with 0.5 mg/ml (final concentration) of freshly prepared MTT solution. After incubating for 3.5 hr at 37° C., 5% CO2 humidified incubator, MTT was carefully removed without aspirating the formazan crystals and replaced with equivalent volume of DMSO to dissolve the formazan crystals. The plates were then read using a multi-plate reader at 570 nm. The absorbance was recorded and % viability was calculated according to the following equation:
[formula] • where, Abt is the absorbance of compound treated cells and Abc is the absorbance of control cells.

For data set [1], the target named is T3, IbpA-Fic2 (IbpA-2) AMPylation of Cdc42 (Histophilus somni, UniProt Q06277).
T3 construct: a construct solely containing the second of the two domains, IbpA-2; made in house
Nature of the data set: Radioactive in-gel AMPylation assay with WT IbpA-Fic2, Cdc42 and α-32P-ATP (cross reactivity). In kind it is biochemical. The conditions noted are these: 10 μM compound, versus DMSO control. As to the method: 1 μM of HYPE (final concentration) and (where specified) 5 μM of T229A BiP (final concentration) were preincubated with 10 μM DMSO-dissolved compound (final concentration) or equivalent volume of 100% DMSO at room temperature for 10 min in HTS Buffer. Reactions were run for 10 min at 30° C. and began with the addition of 0.01 μCi/μL α-32P-ATP (final concentration). All reactions were performed according to our previously described protocol for in vitro radioactive AMPylation assays19. Where specified, 5 μM of T229A BiP (final concentration) was added to reactions before the addition of compound.
All bacterial Fic specificity assays were conducted with 1 μM GST-tagged IbpA-Fic2, 5 μM GST-tagged Q61L Cdc42, and 0.01 μCi/μL α-32P-ATP (all final concentrations). All other reaction parameters were kept as per HYPE radiolabeled in-gel AMPylation assays.

In another data set the test system is HYPE. The following applies: pilot screen of nearly 10,000 compounds; cited from earlier work.
The mark [2] stands for this setting: cherrypick validation, same FP assay.
Where [3] appears, read: initial HTS, normalized to WT and E234G HYPE DMSO controls.
Where [4] appears, read: cherrypick validation, same FP assay, read-out: % Inh. Cherry-pick.
Setting [5] is: initial HTS, normalized to WT and E234G HYPE DMSO controls, read-out: % Inh. HTS.

Where a chain is given by its changes, count along the chain named. Where two headings read alike, the source gives them in different places.

T3 sequence (Q06277 3640-3777): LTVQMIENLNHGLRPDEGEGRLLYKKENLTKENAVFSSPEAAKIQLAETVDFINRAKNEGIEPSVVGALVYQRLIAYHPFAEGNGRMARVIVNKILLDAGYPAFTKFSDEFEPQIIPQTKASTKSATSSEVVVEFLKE

For the compound `CN(Cc1cccc2cnccc12)C(=O)c1cnc(-c2ccccn2)nc1O` [Compound I2.3], the “% Inh. Cherry-pick” value at E234G HYPE (setting [2]) is listed as 30.7%. In addition, on E234G HYPE (setting [3]), the “% Inh. HTS” value is 35.0%. For the same compound, on E234G HYPE, the “Mean % Inh.” value is given as 32.9%.
Take `CCc1ccc(N2CC(c3noc(-c4ccc(C#N)cc4)n3)CC2=O)cc1` (stereo not shown) [Compound I2.9]: the inhibition at 10 µM at E234G HYPE (setting [4]) worked out at 27.8%; at E234G HYPE (setting [5]) it was 27.2%. Further, the “Mean % Inh.” value on E234G HYPE is 27.5%.
As to `Cc1nn(-c2nc3ccccc3[nH]2)c2c1C(c1cc(Br)ccc1F)CC(=O)N2` (stereo not shown) [Compound I2.6], the inhibition at 10 µM on E234G HYPE (setting [4]) is 29.7%; on E234G HYPE (setting [5]), 32.7%. In addition, the “Mean % Inh.” value at E234G HYPE stood at 31.2%.
Regarding `CN(Cc1ccccn1)C(C(=O)O)c1ccc2c(c1)OCO2` (stereo not shown) [Compound I2.2], the inhibition at 10 µM on E234G HYPE (setting [4]) worked out at 22.7%; on E234G HYPE (setting [5]), 20.3%. In addition, the “Mean % Inh.” value at E234G HYPE is on record as 21.5%.
`Oc1cc(-c2ccc(F)cc2)nn1-c1nc2ccccc2[nH]1` [Compound I2.12]: the inhibition at 10 µM on E234G HYPE (setting [4]) was determined as 33.6%; on E234G HYPE (setting [5]), 27.1%. For the same compound, the “Mean % Inh.” value at E234G HYPE came to 30.4%.
On the same counts, the results for `Cc1nn(-c2nc3ccccc3[nH]2)c2c1C(c1ccc(F)cc1F)CC(=O)N2` (stereo not shown) [Compound I2.5] are 32.9%, 23.5% and 28.2%.
As for `O=C1Nc2ccc(Br)cc2C12NN=C(c1ccccc1)S2` (stereo not shown) [Compound I2.7], the inhibition at 10 µM is 34.2% at E234G HYPE (setting [4]) and 20.9% on E234G HYPE (setting [5]). Further, the “Mean % Inh.” value on E234G HYPE was 27.6%.
Take `CCCCn1ccnc1C1CCCN(Cc2ccccn2)C1` (stereo not shown) [Compound I2.1]: the “% Inh. Cherry-pick” value at E234G HYPE (setting [2]) was found to be 29.7%. In addition, on E234G HYPE (setting [3]), the “% Inh. HTS” value is given as 32.5%. Further, the “Mean % Inh.” value at E234G HYPE came to 31.1%.
Regarding `CCCc1cc(O)n(-c2nc3ccccc3[nH]2)n1` [Compound I2.4], the inhibition at 10 µM on E234G HYPE (setting [4]) came to 31%; on E234G HYPE (setting [5]), 27.8%. For the same compound, the “Mean % Inh.” value on E234G HYPE is 29.4%.
On to `Clc1ccc(C(c2ccc(Cl)cc2)n2cc[n+](CC(OCc3ccc(Cl)cc3Cl)c3ccc(Cl)cc3Cl)c2)cc1` (stereo not shown) [Compound A1, calmidazolium], for which the “activation of WT HYPE autoAMPylation in gel” value on WT HYPE is “bioactive above our DMSO control”. Also, the “concentration impacting cell viability” value with HeLa cells is not above 1000 nM. Also, the “effect on IbpA-2 AMPylation of Cdc42” value in data set [1] is on record as “lack of AMPylation enhancement”. Moreover, the “effect on HYPE-mediated AMPylation in vitro” value in the data set with HYPE is on record as “enhance”.
Take `Oc1ccc(CN2CCCCC2)c2cccnc12` [Compound I2.11]: the “% Inh. Cherry-pick” value at E234G HYPE (setting [2]) is 24.6%. Also, the “% Inh. HTS” value at E234G HYPE (setting [3]) is 19.9%. For the same compound, the “Mean % Inh.” value on E234G HYPE was 22.3%.
